# Test results taken from patent US7115253B1, “Process for stabilizing antioxidant compounds, and aqueous compositions” (Industria E Comercio De Cosmeticos Natura Ltda., priority 1999, dated 2006).
# Test: degradation kinetics of 10% LAA solution under ultraviolet radiation
# Format: physicochemical
# Procedure: Comparative tests carried out by the inventors confirm the important paper of the reducing agent in the stabilization of antioxidants as per information obtained by Wrinkler B. S. in his work cited herein. A first test was carried out in order to determine the degradation kinetics of a 10% LAA solution in water-containing medium (m/v) under ultraviolet radiation, using a ultraviolet spectrophotometer, for 60 minutes.
# A stoichiometric amount of the reducing agent of the oxidation reaction, that is, Glutathion, was added to the previous post-irradiated solution. The resultant solution was irradiated with ultraviolet radiation for further 60 minutes. By analyzing the remaining LAA, it could be noticed that 9.50% (m/v) thereof was still present. Therefore, the degradation of the LAA is dramatically minimized after the reducing agent is added.
# In a third test, a 10% LAA solution was prepared in a water-containing medium (m/v) with a stoichiometric amount of the reducing agent Glutathion. […] However, the use of said compound in stoichiometric amounts still presents the already mentioned disadvantages.
smiles,measurement,setting,value
"O=C1O[C@H]([C@@H](O)CO)C(O)=C1O [LAA, levogyrous ascorbic acid]",remaining concentration of molecular LAA,"10% LAA solution in water-containing medium, ultraviolet radiation 60 minutes, no reducing agent",about 9.58 % (m/v)
same,remaining LAA,"10% LAA solution with stoichiometric amount of Glutathion, ultraviolet radiation 60 minutes",9.98 % (m/v)
same,remaining LAA,"stoichiometric Glutathion added to the post-irradiated solution, ultraviolet radiation for further 60 minutes",9.50 % (m/v)
